Data set [1] deals with photodamaged skin. In words: Stratum corneum thickness of periorbital punch biopsies, clinical study. The data set is classed as in vivo, human. The procedure:
(§1) A clinical study was conducted to examined the combined use of retinoic acid therapy with myristyl nicotinate (MN), a lipophilic derivative of niacin that enhances skin barrier function, in subjects with mild to moderate facial photodamage.
All subjects selected for the study were female, between the ages of 30 and 60, with a score of I to IV on the Fitzpatrick Skin Classification, mild to moderate photodamaged skin as defined by a modified Glogau Classification of I to II, and with presence of dyschromia on the face as determined by a woods light visual scan.
The subjects were randomly assigned to one of three groups of 20 subjects each. One month prior to the initiation of retinoic acid therapy, one of the groups (group 3) began to apply to the entire face, both night and morning, a formulation containing 5% myristyl nicotinate. Groups 1 and 2 applied, in the same manner, a placebo formulation in which myristyl myristate replaced myristyl nicotinate. […]
Accordingly, periorbital biopsy samples obtained from study subjects were evaluated for stratum corneum thickness. A board certified dermatologist collected a 2-mm punch biopsy from the right or left side of the face as determined by a randomization design of 7 randomly selected subjects from each group at baseline and after 12 weeks of treatment. […]
Histological images were taken of the H&E stained cross sections with an Olympus inverted stage microscope using a 10× by 0.45 Apochromat objective and a Nikon digital CCD camera. […] Suprapapillary epidermal thickness (as measured from the top of the dermal papilla to the top of the granular layer) and stratum corneum thickness (as measured from the top of the granular layer to the top of the stratum corneum) were measured. For each specimen, five different sites were measured and the average was calculated.

Another data set relates to filaggrin. The data set is described as follows: Filaggrin expression in study subjects. The data set is classed as in vivo, human. From the text:
(§2) To investigate this, the levels of expression of both caspase 14 and filaggrin were investigated in the groups of subjects referred to supra, (i.e., subjects who received placebo alone for one month, then placebo plus retinoic acid, and those who received placebo only for one month and then myristyl nicotinate and retinoic acid during the treatment phase.

For the next data set, the system named is caspase 14. In words: Caspase 14 expression in study subjects. The data set is classed as in vivo, human.
From the text: as §2

Data set [2] has as its system photodamaged skin. The data set is described as follows: Rates of transepidermal water loss (TEWL), right cheek, Dermalab. It counts as in vivo, human. As to conditions: for change from baseline in mean rates of TEWL: 12 weeks. The procedure:
as §1
(§3) The subjects were randomly assigned to one of three groups of 20 subjects each. One month prior to the initiation of retinoic acid therapy, one of the groups (group 3) began to apply to the entire face, both night and morning, a formulation containing 5% myristyl nicotinate. Groups 1 and 2 applied, in the same manner, a placebo formulation in which myristyl myristate replaced myristyl nicotinate. Upon initiation of retinoic acid therapy (baseline), group 1 (placebo/placebo+RA) continued to use the placebo formulation as above, group 2 (placebo/MN+RA) initiated use of the 5% myristyl nicotinate formulation and group 3 (MN/MN+RA) continued to use the 5% myristyl nicotinate formulation. Retinoic acid therapy involved a 0.025% concentration of the drug applied at night, immediately following application of the placebo or myristyl nicotinate containing formulations. This strength of retinoic acid was chosen for this study as the subjects had mild to moderate photodamage.
Determination of rates of TEWL provides a non-invasive assessment of relative skin barrier function. […] For the TEWL measurements, the instruments required a specified temperature and humidity range for optimal function, thus subjects were required to equilibrate to ambient conditions for at least 20 min prior to measurements. Temperature was maintained between 66 and 72° F. and relative humidity maintained between 15 and 55%. A computer-linked Dermalab instrument was used to measure TEWL at two points above the skin surface on the right cheeks of study subjects and the rate of water loss was calculated. Each TEWL measurement was averaged over a one-min measurement period.

Data set [3] relates to photodamaged skin. In words: Suprapapillary epidermal thickness of periorbital punch biopsies. It counts as in vivo, human. As to conditions: for increase in epidermal thickness: 12 weeks. The procedure: as §1, §3
Accordingly, periorbital biopsy samples obtained from study subjects were evaluated for stratum corneum thickness. A board certified dermatologist collected a 2-mm punch biopsy from the right or left side of the face as determined by a randomization design of 7 randomly selected subjects from each group at baseline and after 12 weeks of treatment. The punch biopsies were formalin-fixed, embedded in paraffin, cut into 5 μm cross-sections, mounted on slides, and stained with hematoxylin-eosin (H&E).
Histological images were taken of the H&E stained cross sections with an Olympus inverted stage microscope using a 10× by 0.45 Apochromat objective and a Nikon digital CCD camera. ImageJ image analysis software (NIH) was used to examine the images and perform measurements. Suprapapillary epidermal thickness (as measured from the top of the dermal papilla to the top of the granular layer) and stratum corneum thickness (as measured from the top of the granular layer to the top of the stratum corneum) were measured. For each specimen, five different sites were measured and the average was calculated.
Since long term retinoid therapy is associated with an increase in epidermal thickness, changes in epidermal thickness in each of the groups over the 12-week course of the retinoic acid therapy were also assessed. The mean values for the placebo/placebo+RA, placebo/MN+RA, and MN/MN+RA groups at the baseline were 37.9, 38.8, and 39.3 μm, respectively. […]

Data set [4] has as its system photodamaged skin. In words: Clinical grading of tolerability (irritation/safety parameters). It counts as in vivo, human. The procedure:
as §1, §3
(§4) In order to assess both the tolerability and efficacy of retinoic acid therapy, subjects also were clinically graded on the right and/or left side of the face for efficacy/performance parameters and irritation/safety parameters at baseline, and weeks 2, 4, 8, and 12.
The most severe parameters of tolerability such as scaling/peeling and degree of erythema were graded on 3-point clinical scale at weeks 2, 4, 8, and 12, and mean values were determined. The frequency of less severe parameters of tolerability typical of retinoic acid therapy (including tightness/dryness, stinging, burning, and tingling) was also evaluated.

Data set [5] concerns photodamaged skin. As to conditions: 5% myristyl nicotinate for 3 months, previous studies; cited from earlier work.
In data set [6] the test system is photodamaged skin. The data set is described as follows: Clinical grading of efficacy (dyschromia, fine lines, wrinkles, tactile roughness, temple laxity). The data set is classed as in vivo, human. As to conditions: for grading of temple laxity vs placebo/placebo+RA: 12 weeks. The procedure: as §1, §3, §4
Clinical grading involved evaluation of dyschromia, fine lines, shallow wrinkles, tactile roughness, and temple laxity as a function of treatment time (at weeks 2, 4, 8, and 12).

The mark [7] stands for this setting: MN/MN+RA group (prior and concurrent MN).

In the case of `CCCCCCCCCCCCCCOC(=O)c1cccnc1` [myristyl nicotinate], the “higher mean stratum corneum thickness compared to the mean values of the other groups” value in the data set on photodamaged skin [1] (MN/MN+RA group at baseline, after one month of 5% myristyl nicotinate, not significant at p<0.05) is reported as “approximately 11%”. Further, in the data set with photodamaged skin [1] (concurrent use of 5% myristyl nicotinate and 0.025% retinoic acid, 12 weeks), the “change in stratum corneum thickness” value is on record as “did not result in a decrease in stratum corneum thickness”. Besides, the “average increase in filaggrin expression” value in the data set on filaggrin (placebo, myristyl nicotinate and retinoic acid) turned out to be 13%. Also, the “increase in caspase 14 expression” value in the data set on caspase 14 (placebo, retinoic acid and myristyl nicotinate for 3 months) amounted to 24%. Further, the “change from baseline in mean rates of TEWL” value with photodamaged skin [2] (setting [7]) and in the data set on photodamaged skin [2] (placebo/MN+RA group (concurrent MN)) was “not statistically significant” each time. The compound also displayed a mean epidermal thickness in the data set with photodamaged skin [3] (MN/MN+RA group at baseline, after one month of 5% myristyl nicotinate) of 39.3 μm. In addition, the “increase in epidermal thickness” value with photodamaged skin [3] (myristyl nicotinate concurrent with retinoic acid) is reported as “approximately 3%”; in the data set with photodamaged skin [3] (myristyl nicotinate prior/concurrent with retinoic acid, p=0.0007 vs placebo/placebo+RA) it was “approximately 10%”. In the data set on photodamaged skin [4] (setting [7]), the incidence of tingling entry is “zero”. The “frequency of tightness/dryness, stinging, and burning” value was “decreased” with photodamaged skin [4] (concurrent use of myristyl nicotinate with retinoic acid therapy); “further reduced” in the data set with photodamaged skin [4] (prior and concurrent myristyl nicotinate use with retinoic acid therapy). Moreover, in the data set with photodamaged skin [4] (myristyl nicotinate treated subjects on 0.025% retinoic acid, difference not statistically significant), the “grading of erythema vs placebo” value was “consistently slightly higher”. In addition, in the data set on photodamaged skin [5], the “increase in stratum corneum thickness” value was “more than 50%”. The “grading of temple laxity vs placebo/placebo+RA” value with photodamaged skin [6] (MN/MN+RA group, p=0.02) is on record as “statistically significant greater improvement”; in the data set with photodamaged skin [6] (placebo/MN+RA group, not significant at p<0.05) it was “trend for greater improvement”. For the same compound, in the data set on photodamaged skin [6] (MN/MN+RA group, weeks 4 to 12), the tactile roughness scores entry is on record as “consistently showed greater improvement”.

With `CC1=C(/C=C/C(C)=C/C=C/C(C)=C/C(=O)O)C(C)(C)CCC1` [retinoic acid, All-trans-retinoic acid], the “reduction in stratum corneum thickness” value in the data set on photodamaged skin [1] (placebo/placebo+RA group, 12 weeks of 0.025% retinoic acid therapy, p=0.006 vs. baseline) is recorded as “approximately 24%”. In addition, in the data set with filaggrin (subjects not treated with myristyl nicotinate (placebo plus retinoic acid)), the “change in filaggrin expression” value is “no change”. The “average increase in caspase 14 expression” value in the data set on caspase 14 (placebo plus retinoic acid for 3 months) is 5%. Moreover, in the data set with photodamaged skin [2] (placebo/placebo+RA group, 12 week period, p<0.0001), the “increase in rates of TEWL” value is listed as “approximately 45%”. The “decrease in mean epidermal thickness” value in the data set on photodamaged skin [3] (retinoic acid and placebo cream, 12 week study) is “approximately 5%”. This compound showed a frequency of tingling in the data set on photodamaged skin [4] (retinoic acid therapy 0.025%, frequency reported in the study) of 2%.
